{"source": "patent US12729377B2", "about": "“RNAi agents and compositions for inhibiting expression of angiopoietin-like 3 (ANGPTL3), and methods of use” (Arrowhead Pharmaceuticals, Inc., priority 2017, dated 2026)", "key": {"ANGPTL3 gene [1]": {"test_system": "ANGPTL3 gene", "assay": "Example 12: serum total cholesterol in LDLR knockout mice", "format": "in vivo, LDLR KO mice", "from_the_text": "To evaluate the effect of RNAi agent administration in a disease model, mice having a genetic mutation for the LDL receptor (referred to herein as LDLR KO mice) were commercially obtained (The Jackson Laboratory). The LDLR KO mice are homozygous for the Ldlr^tm1Her mutation, and have elevated serum cholesterol levels, particularly when placed on a high fat diet. For three weeks prior to the onset of the study, thirty-nine (39) LDLR KO mice were placed on a high fat diet (Teklad Custom Diets TD.88137). An additional eight (8) LDLR KO mice were placed on a normal chow diet over the same three-week period. Pre-dose serum samples were taken on day −15 and day −1 after a four hour fast. At day 1, each mouse was given a single subcutaneous administration of 200 μl/30 g animal body weight containing the respective mg/kg dose of an ANGPTL3 RNAi agent in D5W (dextrose in 5% water), control (D5W) with no RNAi agent, or a control RNAi agent that included a nucleotide sequence designed to target the Hepatitis B Virus (HBV) genome. A second injection of the same formulation was administered to the animals on day 29. The dosing regimen for the study is recited in the following Table 60:\nEach mouse remained on its respective diet through the duration of study. The RNAi agent tested (AD05488) included a modified sequence and an N-acetyl-galactosamine-containing targeting ligand conjugated to the 5′ terminal end of the sense strand. (See Tables 3, […] modified sequences and targeting ligand structures). The injections were performed between the skin and muscle (i.e. subcutaneous injections) into the loose skin over the neck and shoulder area. Serum was collected on days 8, 15, 22, 29 (pre-second dose), 36, 43, 50, and 57. LDLR KO mice were fasted for four hours prior to each collection. On day 15, four (4) LDLR KO mice from Groups 1, 2, and 3 (i.e., the groups being administered the high fat “Western” diet) were sacrificed after serum collection, and on day 29, an additional four (4) LDLR KO mice from Groups 1, 2, and 3 were sacrificed after serum collection, for the purpose of performing mRNA assessments.\nANGPTL3 protein levels in serum were measured by ELISA assay (R&D Systems), according to the manufacturer's recommendations. Triglycerides, total cholesterol, high-density lipoprotein (HDL), and low-density lipoprotein (LDL) in serum were measured on a Cobas® Integra 400 (Roche Diagnostics), according to the manufacturer's recommendations.\nThe ANGPTL3 protein levels, triglyceride levels, total cholesterol levels, HDL levels, and LDL levels for each animal were normalized. For normalization, respective levels of ANGPTL3 protein, TG, total cholesterol, HDL, or LDL for each animal at a time point was divided by the average pre-treatment level of expression in that animal (in this case the average of day −15 and day −1) to determine the ratio of expression “normalized to pre-treatment.”\nExpression at a specific time point was then normalized to the D5W control group that was administered the same diet (i.e., either the high fat “Western” diet or the normal chow-fed diet) by dividing the “normalized to pre-treatment” ratio for an individual animal by the mean “normalized to pretreatment” ratio of all mice in the D5W control group on the respective same diet, resulting in expression for each time point normalized to that in the control group."}, "ANGPTL3 gene [2]": {"test_system": "ANGPTL3 gene", "assay": "Example 13: serum total cholesterol in HFCS diet-fed Rhesus monkeys", "format": "in vivo", "settings": "for Avg Chol (Cholesterol) Normalized to Pre-Treatment (Fasted): 4.0 mg/kg sc on day 1 and day 29", "method": "ANGPTL3 RNAi agent AD05488 was further evaluated in high-fructose corn syrup (HFCS) diet-fed Rhesus monkeys. Rhesus monkeys were placed on an HFCS diet 37 days prior to dosing. These animals were known to develop increased plasma triglycerides greater than 180 mg/dL on the HFCS diet. On day 1 and again on day 29, four (4) Rhesus monkeys were administered a subcutaneous injection containing 4.0 mg/kg of ANGPTL3 RNAi agent AD05488 formulated in saline (n=4). Two additional Rhesus monkeys were administered normal saline control.\nFasted blood samples were drawn for analysis, and serum samples were analyzed on days-8 (predose), 8, 15, 21, 29, and 36. ANGPTL3 expression levels, triglycerides, total cholesterol, high-density lipoprotein (HDL), and low-density lipoprotein (LDL) in serum were measured on a Cobas® Integra 400 (Roche Diagnostics), according to the manufacturer's recommendations.\nThe ANGPTL3 protein levels, triglyceride levels, total cholesterol levels, HDL levels, and LDL levels for each animal were normalized. For normalization, the level of ANGPTL3 protein, triglyceride, HDL, and total cholesterol, respectively, for each animal at a time point, was divided by the pre-treatment level of expression in that animal (in this case at day −8) to determine the ratio of expression “normalized to pre-treatment.”"}}, "note": "In the oligonucleotide strings, read from the 5' end, every base follows the letter of its sugar. An asterisk marks phosphorothioate; unmarked linkages are phosphodiester. Other units and linkages are bracketed, terminal groups are in braces. A string of capitals states the bases alone. {NAG37} = tridentate N-acetyl-galactosamine targeting ligand, structure (NAG37)s; [invAb] = inverted abasic unit; m = 2'-O-methyl; f = 2'-fluoro", "data": [{"substance": "AD05488: RNAi agent duplex: antisense AM07235-AS, sense AM07234-SS (antisense mU*fA*mC*fUmGfAmUfCmAfAmAfUmAfUmGfUmUfGmAfG*mC; sense {NAG37}*[invAb]*mGmCmUmCmAmAmCmAfUfAfUmUmUmGmAmUmCmAmGmUmA*[invAb])", "values": [{"measurement": "reductions in total cholesterol", "setting": "ANGPTL3 gene [1]; 3.0 mg/kg on days 1 and 29 (Groups 2 and 5), LDLR KO mice", "value": "significant reductions"}, {"measurement": "Avg Total Chol Normalized to Pre-Treatment and Control (Diet Matched)", "setting": "ANGPTL3 gene [1]; 3.0 mg/kg sc day 1, High Fat Diet, Day 8", "value": 0.524}, {"measurement": "Avg Total Chol Normalized to Pre-Treatment and Control (Diet Matched)", "setting": "ANGPTL3 gene [1]; 3.0 mg/kg sc day 1, High Fat Diet, Day 15", "value": 0.438}, {"measurement": "Avg Total Chol Normalized to Pre-Treatment and Control (Diet Matched)", "setting": "ANGPTL3 gene [1]; 3.0 mg/kg sc day 1, High Fat Diet, Day 22", "value": 0.410}, {"measurement": "Avg Total Chol Normalized to Pre-Treatment and Control (Diet Matched)", "setting": "ANGPTL3 gene [1]; 3.0 mg/kg sc day 1, High Fat Diet, Day 29 (pre-second dose)", "value": 0.410}, {"measurement": "Avg Total Chol Normalized to Pre-Treatment and Control (Diet Matched)", "setting": "ANGPTL3 gene [1]; 3.0 mg/kg sc day 1, Normal Diet, Day 8", "value": 0.645}, {"measurement": "Avg Total Chol Normalized to Pre-Treatment and Control (Diet Matched)", "setting": "ANGPTL3 gene [1]; 3.0 mg/kg sc day 1, Normal Diet, Day 15", "value": 0.683}, {"measurement": "Avg Total Chol Normalized to Pre-Treatment and Control (Diet Matched)", "setting": "ANGPTL3 gene [1]; 3.0 mg/kg sc day 1, Normal Diet, Day 22", "value": 0.691}, {"measurement": "Avg Total Chol Normalized to Pre-Treatment and Control (Diet Matched)", "setting": "ANGPTL3 gene [1]; 3.0 mg/kg sc day 1, Normal Diet, Day 29 (pre-second dose)", "value": 0.636}, {"measurement": "Avg Total Chol Normalized to Pre-Treatment and Control (Diet Matched)", "setting": "ANGPTL3 gene [1]; 3.0 mg/kg sc days 1 and 29, High Fat Diet, Day 36", "value": 0.438}, {"measurement": "Avg Total Chol Normalized to Pre-Treatment and Control (Diet Matched)", "setting": "ANGPTL3 gene [1]; 3.0 mg/kg sc days 1 and 29, High Fat Diet, Day 43", "value": 0.363}, {"measurement": "Avg Total Chol Normalized to Pre-Treatment and Control (Diet Matched)", "setting": "ANGPTL3 gene [1]; 3.0 mg/kg sc days 1 and 29, High Fat Diet, Day 50", "value": 0.374}, {"measurement": "Avg Total Chol Normalized to Pre-Treatment and Control (Diet Matched)", "setting": "ANGPTL3 gene [1]; 3.0 mg/kg sc days 1 and 29, High Fat Diet, Day 57", "value": 0.341}, {"measurement": "Avg Total Chol Normalized to Pre-Treatment and Control (Diet Matched)", "setting": "ANGPTL3 gene [1]; 3.0 mg/kg sc days 1 and 29, Normal Diet, Day 36", "value": 0.758}, {"measurement": "Avg Total Chol Normalized to Pre-Treatment and Control (Diet Matched)", "setting": "ANGPTL3 gene [1]; 3.0 mg/kg sc days 1 and 29, Normal Diet, Day 43", "value": 0.657}, {"measurement": "Avg Total Chol Normalized to Pre-Treatment and Control (Diet Matched)", "setting": "ANGPTL3 gene [1]; 3.0 mg/kg sc days 1 and 29, Normal Diet, Day 50", "value": 0.824}, {"measurement": "Avg Total Chol Normalized to Pre-Treatment and Control (Diet Matched)", "setting": "ANGPTL3 gene [1]; 3.0 mg/kg sc days 1 and 29, Normal Diet, Day 57", "value": 0.684}, {"measurement": "reductions in total cholesterol levels", "setting": "ANGPTL3 gene [2]; 4.0 mg/kg on days 1 and 29, HFCS diet-fed Rhesus monkeys", "value": "reductions"}, {"measurement": "Avg Chol (Cholesterol) Normalized to Pre-Treatment (Fasted)", "setting": "ANGPTL3 gene [2]; Day 8", "value": 0.734}, {"measurement": "Avg Chol (Cholesterol) Normalized to Pre-Treatment (Fasted)", "setting": "ANGPTL3 gene [2]; Day 15", "value": 0.641}, {"measurement": "Avg Chol (Cholesterol) Normalized to Pre-Treatment (Fasted)", "setting": "ANGPTL3 gene [2]; Day 21", "value": 0.579}, {"measurement": "Avg Chol (Cholesterol) Normalized to Pre-Treatment (Fasted)", "setting": "ANGPTL3 gene [2]; Day 29", "value": 0.549}, {"measurement": "Avg Chol (Cholesterol) Normalized to Pre-Treatment (Fasted)", "setting": "ANGPTL3 gene [2]; Day 36", "value": 0.459}]}]}
